Structures can show the parent of a compound that is named as a salt. ± gives the standard deviation of the averaged measurements.
Test system: SW872
Test: relative viability vs DMSO control (72 h) (fraction); higher = more viable cells
How it was run: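 Sarcoma cell lines went into 384-well plates at densities chosen to reach 80–90% confluence. After 24 h, each well received 2.5 µl of serially diluted compound, with source plates running from 10 mM to 0.0002 mM, and the plates were kept 72 h at 37 °C, 5% CO2, alongside 0.1% DMSO vehicle and a 5 µM positive control. Relative viability was derived from ATPLite readings as percent growth and averaged over up to triplicate wells. The data were then rescaled so that 1 stands for full and 0 for none.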

Row | SMILES | relative viability (0.00017 µM) | relative viability (0.00051 µM) | relative viability (0.00152 µM) | relative viability (0.00457 µM) | relative viability (0.01372 µM) | relative viability (0.04115 µM) | relative viability (0.1235 µM) | relative viability (0.3704 µM) | relative viability (1.111 µM) | relative viability (3.333 µM) | relative viability (10 µM)
1 | CC(C)(C)c1cc(NC(=O)Nc2ccc(-c3cn4c(n3)sc3cc(OCCN5CCOCC5)ccc34)cc2)no1 [Quizartinib] | 1.05 ± 0.023 | 1.045 ± 0.0071 | 1.05 ± 0.0053 | 1.041 ± 0.0092 | 1.051 ± 0.0052 | 1.04 ± 0.012 | 1.04 ± 0.019 | 1.03 ± 0.037 | 1.029 ± 0.01 | 1.032 ± 0.0056 | 1.02 ± 0.018
2 | CNC(=O)c1ccc(-c2cnc3ncc(Cc4ccc5ncccc5c4)n3n2)cc1F [Capmatinib] | 1.04 ± 0.041 | 1.03 ± 0.026 | 1.04 ± 0.048 | 1.03 ± 0.025 | 1.05 ± 0.049 | 1.05 ± 0.022 | 1.03 ± 0.043 | 1.06 ± 0.029 | 0.987 ± 0.024 | 1.02 ± 0.012 | 1 ± 0.019
3 | CC(C)N1CCN(Cc2cnc(-c3cc(-c4cccc5[nH]ccc45)cc4[nH]ncc34)o2)CC1 [Nemiralisib] | 0.975 ± 0.035 | 0.982 ± 0.036 | 0.945 ± 0.043 | 0.945 ± 0.018 | 0.916 ± 0.033 | 0.949 ± 0.042 | 0.952 ± 0.018 | 0.896 ± 0.014 | 0.819 ± 0.032 | 0.622 ± 0.043 | 0.448 ± 0.017
4 | C[C@@H](c1ccc2nccn2c1)n1nnc2ncc(-c3cnn(C)c3)nc21 [Volitinib] | 1.06 ± 0.029 | 1.06 ± 0.034 | 1.08 ± 0.027 | 1.08 ± 0.051 | 1.06 ± 0.045 | 1.089 ± 0.0097 | 1.07 ± 0.041 | 1.06 ± 0.043 | 1.1 ± 0.026 | 1.05 ± 0.025 | 1.05 ± 0.044
5 | COc1c(OCCCN2CCOCC2)ccc2c1N=C(NC(=O)c1cnc(N)nc1)N1CCN=C21 [Copanlisib] | 1.07 ± 0.03 | 1.02 ± 0.049 | 1.02 ± 0.064 | 0.817 ± 0.059 | 0.689 ± 0.037 | 0.599 ± 0.08 | 0.425 ± 0.033 | 0.284 ± 0.0047 | 0.193 ± 0.013 | 0.16 ± 0.006 | 0.149 ± 0.015
6 | CCN1CCN(Cc2ccc(Nc3ncc(F)c(-c4cc(F)c5nc(C)n(C(C)C)c5c4)n3)nc2)CC1 [Abemaciclib] | 1.01 ± 0.08 | 1.03 ± 0.038 | 1.01 ± 0.044 | 1.02 ± 0.046 | 1.01 ± 0.052 | 0.95 ± 0.095 | 0.874 ± 0.037 | 0.742 ± 0.025 | 0.678 ± 0.032 | 0.668 ± 0.018 | 0.709 ± 0.04
7 | C[C@]1(O)C[C@@H](c2nc(-c3ccc4ccc(-c5ccccc5)nc4c3)c3c(N)nccn32)C1 [Linsitinib] | 1.04 ± 0.037 | 1.05 ± 0.014 | 1.03 ± 0.041 | 1 ± 0.043 | 0.995 ± 0.048 | 0.973 ± 0.027 | 0.9745 ± 0.0092 | 0.9267 ± 0.0035 | 0.914 ± 0.027 | 0.821 ± 0.028 | 0.615 ± 0.018
8 | Cc1ccc(NC(=O)c2ccc(CN3CCN(C)CC3)cc2)cc1Nc1nc(-c2cccnc2)cs1 [Masitinib] | 1.03 ± 0.044 | 1.06 ± 0.028 | 1.04 ± 0.029 | 1.03 ± 0.041 | 1.04 ± 0.038 | 1.06 ± 0.03 | 1.006 ± 0.006 | 0.979 ± 0.021 | 0.798 ± 0.015 | 0.519 ± 0.0078 | 0.127 ± 0.012
9 | CN1CCN(c2ccc3nc(-c4c(N)c5c(F)cccc5[nH]c4=O)[nH]c3c2)CC1 [Dovitinib] | 1.05 ± 0.054 | 1.04 ± 0.022 | 1.06 ± 0.015 | 1.08 ± 0.018 | 1.06 ± 0.045 | 1.05 ± 0.025 | 0.937 ± 0.097 | 0.891 ± 0.067 | 0.604 ± 0.03 | 0.402 ± 0.023 | 0.235 ± 0.022
10 | CC(=O)Nc1cccc(-n2c(=O)n(C3CC3)c(=O)c3c(Nc4ccc(I)cc4F)n(C)c(=O)c(C)c32)c1 [Trametinib] | 1.11 ± 0.046 | 1.05 ± 0.055 | 0.856 ± 0.059 | 0.674 ± 0.046 | 0.597 ± 0.0061 | 0.607 ± 0.034 | 0.593 ± 0.008 | 0.593 ± 0.022 | 0.562 ± 0.015 | 0.549 ± 0.031 | 0.564 ± 0.014
11 | C=CC(=O)N1CCC[C@@H](n2nc(-c3ccc(Oc4ccccc4)cc3)c3c(N)ncnc32)C1 [Ibrutinib] | 1.06 ± 0.016 | 1.06 ± 0.017 | 1.06 ± 0.064 | 1.01 ± 0.022 | 1.01 ± 0.042 | 0.976 ± 0.037 | 0.98 ± 0.081 | 0.923 ± 0.024 | 0.9099 ± 0.0036 | 0.84 ± 0.049 | 0.583 ± 0.027
12 | COc1cc2/c(=N/c3ccc(Br)cc3F)nc[nH]c2cc1OCC1CCN(C)CC1 [Vandetanib] | 1.02 ± 0.046 | 1.01 ± 0.052 | 1 ± 0.036 | 1.02 ± 0.041 | 1.03 ± 0.02 | 0.987 ± 0.051 | 0.964 ± 0.0059 | 0.91 ± 0.025 | 0.802 ± 0.03 | 0.5804 ± 0.0048 | 0.00997 ± 0.0034
13 | C[C@@H]1COCCN1c1cc(-c2ccnn2C)c2ccnc(-c3ccn[nH]3)c2n1 | 0.994 ± 0.054 | 1.01 ± 0.018 | 1.01 ± 0.014 | 1.04 ± 0.037 | 0.953 ± 0.043 | 0.867 ± 0.013 | 0.714 ± 0.047 | 0.452 ± 0.043 | 0.282 ± 0.012 | 0.229 ± 0.011 | 0.197 ± 0.0092
14 | COc1cccc2c1C(=O)c1c(O)c3c(c(O)c1C2=O)C[C@@](O)(C(=O)CO)C[C@@H]3O[C@H]1C[C@H](N)[C@H](O)[C@H](C)O1 [Doxorubicin Hydrochloride] | 1.04 ± 0.021 | 1.05 ± 0.046 | 1.04 ± 0.031 | 1.08 ± 0.036 | 1.06 ± 0.018 | 0.961 ± 0.024 | 0.527 ± 0.051 | 0.203 ± 0.011 | 0.172 ± 0.014 | 0.213 ± 0.005 | 0.175 ± 0.0045
15 | O=C(Nc1cnn2ccc(N3CCC[C@@H]3c3cc(F)ccc3F)nc12)N1CC[C@H](O)C1 [Larotrectinib] | 1.09 ± 0.022 | 1.12 ± 0.052 | 1.09 ± 0.072 | 1.08 ± 0.049 | 1.05 ± 0.11 | 0.99 ± 0.076 | 1.06 ± 0.095 | 1.06 ± 0.078 | 1.03 ± 0.065 | 1.03 ± 0.056 | 0.986 ± 0.044
16 | Cc1cc(C)c(/C=C2\C(=O)Nc3ccccc32)[nH]1 [Semaxanib] | 0.968 ± 0.038 | 0.968 ± 0.024 | 0.938 ± 0.084 | 0.933 ± 0.067 | 0.936 ± 0.062 | 0.953 ± 0.067 | 0.979 ± 0.022 | 0.99 ± 0.028 | 0.963 ± 0.042 | 0.972 ± 0.031 | 0.8936 ± 0.0083
17 | CC1(C)CNc2cc(NC(=O)c3cccnc3NCc3ccncc3)ccc21 [Motesanib] | 1 ± 0.03 | 0.988 ± 0.014 | 0.972 ± 0.025 | 0.971 ± 0.029 | 0.95 ± 0.047 | 0.98 ± 0.012 | 0.971 ± 0.035 | 0.999 ± 0.015 | 0.978 ± 0.021 | 0.958 ± 0.035 | 0.811 ± 0.028
18 | Cc1nc(-c2cn3c(n2)-c2ccc(-c4cnn(C(C)(C)C(N)=O)c4)cc2OCC3)n(C(C)C)n1 [Taselisib] | 1 ± 0.044 | 0.996 ± 0.03 | 1.02 ± 0.021 | 0.9808 ± 0.006 | 0.93 ± 0.061 | 0.88 ± 0.017 | 0.758 ± 0.029 | 0.643 ± 0.012 | 0.504 ± 0.015 | 0.381 ± 0.015 | 0.284 ± 0.018
19 | CC(C)NC(=O)C1CCC(n2c(NC(=O)c3ccc(F)cc3)nc3ccc(CN4CCC(C(C)(C)O)CC4)cc32)CC1 (centres undefined) [Belizatinib] | 1.08 ± 0.04 | 1.07 ± 0.027 | 1.04 ± 0.052 | 1.05 ± 0.033 | 1.07 ± 0.01 | 1.05 ± 0.024 | 1.01 ± 0.019 | 0.817 ± 0.034 | 0.5729 ± 0.0013 | 0.412 ± 0.021 | 0.274 ± 0.0093
